Target: KRAS G12C and cRAF (Ras-binding domain) interaction (Homo sapiens (Human), UniProt P01116, C118S/C51S/C80L/G12C)
Experiment: Inhibition of KRAS G12C and cRAF binding (AlphaScreen)
Conditions: GMPPNP-loaded KRAS G12C, 19-20 hours incubation with compound; read-out: IC50 (Inhibition of KRAS G12C and cRAF Binding)
Procedure, shortened: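 Compounds (DMSO) preincubated 19-20 h at room temperature, then RBD with streptavidin donor and glutathione acceptor beads added in 25 mM Hepes pH 7.4, 150 mM NaCl, 5 mM MgCl2, 0.01% Triton X-100, 2% DMSO for 60-90 min. Emission 570 nm (excitation 680 nm); IC50 by 4-parameter fit. Counter-screen used biotin-AviTag-GST instead of RBD.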

KRAS G12C and cRAF (Ras-binding domain) interaction, sequence (P01116 other isoform, or with tags, fused parts or gaps G12C/C51S/C80L/C118S): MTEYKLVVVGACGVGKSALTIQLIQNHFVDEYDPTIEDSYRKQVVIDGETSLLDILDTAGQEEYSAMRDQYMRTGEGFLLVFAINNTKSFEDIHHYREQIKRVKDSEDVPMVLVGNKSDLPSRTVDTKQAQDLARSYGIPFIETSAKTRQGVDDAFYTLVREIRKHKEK

First: Cc1c(F)ccc2c(-c3ncc4c(N(C)[C@@H]5CCN(C(=O)/C=C/CN(C)C)C5)nc(OC[C@@]56CCCN5C[C@H](F)C6)nc4c3F)cccc12 [Example 281, (E)-4-(dimethylamino)-1-((R)-3-((8-fluoro-7-(6-fluoro-5-methylnaphthalen-1-yl)-2-(((2R,7aS)-2-fluorotetrahydro-1H-pyrrolizin-7a(5H)-yl)methoxy)pyrido[4,3-d]pyrimidin-4-yl)(methyl)amino)pyrrolidin-1-yl)but-2-en-1-one]
Second: C=CC(=O)N1CC[C@@H](N(C)c2nc(OC[C@@]34CCCN3C[C@H](F)C4)nc3c(F)c(-c4cccc5ccc(F)c(F)c45)ncc23)C1 [Example 192, 1-((R)-3-((7-(7,8-difluoronaphthalen-1-yl)-8-fluoro-2-(((2R,7aS)-2-fluorotetrahydro-1H-pyrrolizin-7a(5H)-yl)methoxy)pyrido[4,3-d]pyrimidin-4-yl)(methyl)amino)pyrrolidin-1-yl)prop-2-en-1-one]
The IC50 of the first is higher: 100 to 500 nM for the first, 10 to 100 nM for the second.

Compared with `CN(c1nc(OCC23CCCN2CCC3)nc2c(F)c(-c3cccc4cccc(Cl)c34)ncc12)[C@@H]1CCN(C(=O)/C=C/c2nc(C(F)(F)F)no2)C1` [Example 100, (R,E)-1-(3-((7-(8-chloronaphthalen-1-yl)-8-fluoro-2-((tetrahydro-1H-pyrrolizin-7a(5H)-yl)methoxy)pyrido[4,3-d]pyrimidin-4-yl)(methyl)amino)pyrrolidin-1-yl)-3-(3-(trifluoromethyl)-1,2,4-oxadiazol-5-yl)prop-2-en-1-one], `CN(c1nc(OCC23CCCN2CCC3)nc2c(F)c(-c3cccc4cccc(Cl)c34)ncc12)[C@@H]1CCN(C(=O)/C=C/c2nc(C(C)(C)C)no2)C1` [Example 147, (R,E)-3-(3-(tert-butyl)-1,2,4-oxadiazol-5-yl)-1-(3-((7-(8-chloronaphthalen-1-yl)-8-fluoro-2-((hexahydro-1H-pyrrolizin-7a-yl)methoxy)pyrido[4,3-d]pyrimidin-4-yl)(methyl)amino)pyrrolidin-1-yl)prop-2-en-1-one] is higher in IC50: < 10 nM for the first, 10 to 100 nM for the second.

First: C#Cc1c(F)ccc2cccc(-c3ncc4c(N(C)[C@@H]5CCN(C(=O)/C=C/c6ccnc(C)n6)C5)nc(OC[C@@]56CCCN5C[C@H](F)C6)nc4c3F)c12 [Example 278, (E)-1-((R)-3-((7-(8-ethynyl-7-fluoronaphthalen-1-yl)-8-fluoro-2-(((2R,7aS)-2-fluorotetrahydro-1H-pyrrolizin-7a(5H)-yl)methoxy)pyrido[4,3-d]pyrimidin-4-yl)(methyl)amino)pyrrolidin-1-yl)-3-(2-methylpyrimidin-4-yl)prop-2-en-1-one]
Second: CN1CC(=CC(=O)N2CC[C@@H](N(C)c3nc(OC[C@@]45CCCN4C[C@H](F)C5)nc4c(F)c(-c5cccc6ccc(F)c(F)c56)ncc34)C2)C1 [Example 299, 1-((R)-3-((7-(7,8-difluoronaphthalen-1-yl)-8-fluoro-2-(((2R,7aS)-2-fluorotetrahydro-1H-pyrrolizin-7a(5H)-yl)methoxy)pyrido[4,3-d]pyrimidin-4-yl)(methyl)amino)pyrrolidin-1-yl)-2-(1-methylazetidin-3-ylidene)ethan-1-one]
The IC50 of the first is higher: 10 to 100 nM for the first, < 10 nM for the second. The second is the more potent here.

`C=CC(=O)N1CC[C@@H](N(C)c2nc(OC[C@@]34CCCN3C[C@H](F)C4)nc3c(F)c(-c4cccc5cccc(C#CC)c45)ncc23)C1` [Example 306, 1-((R)-3-((8-fluoro-2-(((2R,7aS)-2-fluorotetrahydro-1H-pyrrolizin-7a(5H)-yl)methoxy)-7-(8-(prop-1-yn-1-yl)naphthalen-1-yl)pyrido[4,3-d]pyrimidin-4-yl)(methyl)amino)pyrrolidin-1-yl)prop-2-en-1-one] and `C=CC(=O)N1C[C@@H](N(C)c2nc(OC[C@@]34CCCN3C[C@H](F)C4)nc3c(F)c(-c4cccc5cccc(Cl)c45)ncc23)C(F)(F)C1` [Example 285, 1-((R)-4-((7-(8-chloronaphthalen-1-yl)-8-fluoro-2-(((2R,7aS)-2-fluorotetrahydro-1H-pyrrolizin-7a(5H)-yl)methoxy)pyrido[4,3-d]pyrimidin-4-yl)(methyl)amino)-3,3-difluoropyrrolidin-1-yl)prop-2-en-1-one] cannot be ordered by IC50: > 500 nM for the first, > 500 nM for the second.

`CN(c1nc(OCC23CCCN2CCC3)nc2c(F)c(-c3cccc4ccc(F)c(Cl)c34)ncc12)[C@@H]1CCN(C(=O)/C=C/c2nc(C(C)(C)O)no2)C1` [Example 61, (R,E)-1-(3-((7-(8-chloro-7-fluoronaphthalen-1-yl)-8-fluoro-2-((hexahydro-1H-pyrrolizin-7a-yl)methoxy)pyrido[4,3-d]pyrimidin-4-yl)(methyl)amino)pyrrolidin-1-yl)-3-(3-(2-hydroxypropan-2-yl)-1,2,4-oxadiazol-5-yl)prop-2-en-1-one] and `CN(CC1CN(C(=O)/C=C/CN2CCOCC2)C1)c1nc(OC[C@@]23CCCN2C[C@H](F)C3)nc2c(F)c(-c3cccc4ccc(F)c(Cl)c34)ncc12` [Example 79, (E)-1-(3-(((7-(8-chloro-7-fluoronaphthalen-1-yl)-8-fluoro-2-(((2R,7aS)-2-fluorotetrahydro-1H-pyrrolizin-7a(5H)-yl)methoxy)pyrido[4,3-d]pyrimidin-4-yl)(methyl)amino)methyl)azetidin-1-yl)-4-morpholinobut-2-en-1-one] fall in the same range of IC50: 10 to 100 nM for the first, 10 to 100 nM for the second.

First: CC(C)OC(=O)/C=C/C(=O)N1CC[C@@H](N(C)c2nc(OCC34CCCN3CCC4)nc3c2CCN(c2cccc4cccc(Cl)c24)C3)C1 [Example 18, isopropyl(R,E)-4-(3-((7-(8-chloronaphthalen-1-yl)-2-((tetrahydro-1H-pyrrolizin-7a(5H)-yl)methoxy)-5,6,7,8-tetrahydropyrido[3,4-d]pyrimidin-4-yl)(methyl)amino)pyrrolidin-1-yl)-4-oxobut-2-enoate]
Second: CCc1c(F)ccc2cccc(-c3ncc4c(N(C)CC5CN(C(=O)/C=C/c6cc(C)nc(C)n6)C5)nc(OC[C@@]56CCCN5C[C@H](F)C6)nc4c3F)c12 [Example 283, (E)-3-(2,6-dimethylpyrimidin-4-yl)-1-(3-(((7-(8-ethyl-7-fluoronaphthalen-1-yl)-8-fluoro-2-(((2R,7aS)-2-fluorotetrahydro-1H-pyrrolizin-7a(5H)-yl)methoxy)pyrido[4,3-d]pyrimidin-4-yl)(methyl)amino)methyl)azetidin-1-yl)prop-2-en-1-one]
The IC50 of the first is lower: < 10 nM for the first, 100 to 500 nM for the second.

Same assay, conditions: additional exemplary compounds; KRAS G12C and cRAF binding; read-out: RAF1 RBD IC50

First: C=CC(=O)N1CC(CN(C)c2nc(OCC34CCCN3CCC4)nc3c(F)c(-c4cccc5cccc(Cl)c45)ncc23)C1
Second: C=CC(=O)N1CC[C@@H](N(C)c2nc(OC[C@]34CCCN3C[C@H](F)C4)nc3c(F)c(-c4cccc5cccc(Cl)c45)ncc23)C1
The IC50 of the first is lower: 10 to 100 nM for the first, 100 to 500 nM for the second.

`Cc1nccc(/C=C/C(=O)N2CCC[C@H](Nc3nc(OC[C@@]45CCCN4C[C@H](F)C5)nc4c(F)c(-c5cccc6cccc(Cl)c56)ncc34)C2)n1` and `CN(c1nc(OCC23CCCN2CCC3)nc2c(F)c(-c3cccc4cccc(Cl)c34)ncc12)[C@@H]1CCN(C(=O)/C=C/c2cnccn2)C1` cannot be ordered by IC50: > 500 nM for the first, > 500 nM for the second.

`C=CS(=O)(=O)CCN(C)c1nc(OC[C@@H]2CCCN2C)nc2c(F)c(-c3cccc4cccc(Cl)c34)ncc12` and `C=CS(=O)(=O)CCN(C)c1nc(OC[C@@H]2CCCN2C)nc2c1CCN(c1cccc3ccc(F)c(Cl)c13)C2` fall in the same range of IC50: 100 to 500 nM for the first, 100 to 500 nM for the second.

First: COC/C=C/C(=O)N1CC[C@@H](N(C)c2nc(OCC34CCCN3CCC4)nc3c(F)c(-c4cccc5cccc(Cl)c45)ncc23)C1
Second: CN(C)C(=O)/C=C/C(=O)N1CC[C@@H](N(C)c2nc(OCC34CCCN3CCC4)nc3c(F)c(-c4cccc5cccc(Cl)c45)ncc23)C1
The IC50 of the first is lower: 10 to 100 nM for the first, > 500 nM for the second.

First: CN(C)C/C=C/S(=O)(=O)C1CCCN(c2nc(OCC34CCCN3CCC4)nc3c2CCN(c2cccc4cccc(Cl)c24)C3)C1 (stereo not drawn)
Second: C=CS(=O)(=O)[C@@H]1CC[C@H](N(C)c2nc(OCC34CCCN3CCC4)nc3c2CCN(c2cccc4cccc(Cl)c24)C3)C1
The IC50 of the first is lower: 10 to 100 nM for the first, > 500 nM for the second. The first is the more potent here.

`O=C(/C=C/CN1CCOCC1)N1C[C@H]2CC[C@@H](C1)N2c1nc(OC[C@@]23CCCN2C[C@H](F)C3)nc2c(F)c(-c3cccc4cccc(Cl)c34)ncc12` and `O=C(/C=C/CN1CCOCC1)N1C[C@H]2C[C@@H]1CN2c1nc(OC[C@@]23CCCN2C[C@H](F)C3)nc2c(F)c(-c3cccc4cccc(Cl)c34)ncc12` cannot be ordered by IC50: > 500 nM for the first, > 500 nM for the second.

`CN(C)C(=O)/C=C/C(=O)N1CC[C@@H](N(C)c2nc(OCC34CCCN3CCC4)nc3c2CCN(c2cccc4cccc(Cl)c24)C3)C1` and `C=CC(=O)N1CCC[C@@H](N(C)c2nc(OCC34CCCN3CCC4)nc3c2CCN(c2cccc4cccc(Cl)c24)C3)C1` cannot be ordered by IC50: > 500 nM for the first, > 500 nM for the second.

Compared with `C=CC(=O)N1[C@H]2CC[C@@H]1[C@@H](N(C)c1nc(OC[C@@]34CCCN3C[C@H](F)C4)nc3c1CCN(c1cccc4cccc(Cl)c14)C3)C2`, `C=CC(=O)N1C[C@H](N(C)c2nc(OCC34CCCN3CCC4)nc3c2CCN(c2cccc4cccc(Cl)c24)C3)C[C@H]1C#N` is lower in IC50: > 500 nM for the first, 10 to 100 nM for the second.

First: C#Cc1c(F)ccc2cccc(-c3ncc4c(N(C)[C@@H]5CCCN(C(=O)/C=C/c6cc(C)nc(C)n6)C5)nc(OC[C@@]56CCCN5C[C@H](F)C6)nc4c3F)c12
Second: C=CC(=O)N(C)C[C@@H]1CCN1c1nc(OC[C@@]23CCCN2C[C@H](F)C3)nc2c(F)c(-c3cccc4cccc(Cl)c34)ncc12
The IC50 of the first is lower: 100 to 500 nM for the first, > 500 nM for the second.

First: C=CC(=O)N1C[C@H](N(C)c2nc(OCC34CCCN3CCC4)nc3c2CCN(c2cccc4cccc(Cl)c24)C3)C[C@@H]1C#N
Second: Cc1nc(/C=C/C(=O)NCCN(C)c2nc(OCC34CCCN3CCC4)nc3c2CCN(c2cccc4cccc(Cl)c24)C3)no1
The IC50 of the first is lower: 100 to 500 nM for the first, > 500 nM for the second.

With `Cc1noc(/C=C/C(=O)N2CCN(c3nc(OC[C@@]45CCCN4C[C@H](F)C5)nc4c3CCN(c3cccc5cccc(Cl)c35)C4)CC2)n1` the IC50 was > 500 nM.

Source: patent US20250019387A1 (Frontier Medicines Corporation, priority 0001, published 2025)
